What was measured:
OVCAR-5 = conditions: 48 h
MDA-MB-231/ATCC = MDA-MB-231/ATCC (Breast); 48 h
SW-620 = test: cells; conditions: Homo sapiens, SW-620, 48 h
[1] = test system: normal human mammary epithelial cells (HMEC); test: Cell growth measurement; format: cell-based
HOP-62 = HOP-62 (Non-Small cell lung cancer); 48 h
DU-145 = test: cells; conditions: Homo sapiens, DU-145, 48 h
RPMI-8226 = RPMI-8226 (Leukemia); 48 h
SF-539 = test: cells; conditions: Homo sapiens, SF-539, 48 h
U251 = U251 (CNS); 48 h
SF-295 = SF-295 (CNS); 48 h
SK-OV-3 = conditions: 48 h
SR = SR (Leukemia); 48 h
NCI-H322M = test: cells; conditions: Homo sapiens, 48 h
EKVX = test: cells; conditions: Homo sapiens, 48 h
MDA-MB-468 = MDA-MB-468 (Breast); 48 h
HCT-116 = test: cells; conditions: Homo sapiens, HCT-116, 48 h
COLO205 = COLO205 (Colon); 48 h
CCRF-CEM = test: cells; conditions: Homo sapiens, 48 h
LOX IMVI = LOX IMVI (Melanoma); 48 h
MCF-7 = test: Cell growth measurement; format: cell-based; conditions: 10 days of treatment
Description: (§1) Finally, the effects of 3 on the growth of several breast cancer cell lines [MCF-7 (ER-positive, HER2-negative, RA-sensitive); SkBr3 (ER-negative, HER2-amplified, RA-sensitive); and the normally RA-insensitive MDA-MB-231 (ER-negative, HER2-negative, RA-insensitive)] was assessed.
(§2) Cell Growth Measurement: Cells were plated at 40 k cells per well (6-well plate) in DMEM 5% FBS-T for all cell lines except for I-IMEC cells which were plated in supplemented MEBM from Clonetics. Cells were treated every 48 hours and media was refreshed every 96 hours. After 10 days of treatment cells were harvested in 0.1N NaOH and growth was quantified by analyzing protein content of lysates with a Lowry assay.

MDA-MB-231 = test: Cell growth measurement; format: cell-based; conditions: 10 days of treatment
Description: as §1, §2

SkBr3 = test: Cell growth measurement; format: cell-based; conditions: 10 days of treatment
Description: as §1, §2

SF-268 = test: cells; conditions: Homo sapiens, SF-268, 48 h
A549/ATCC = A549/ATCC (Non-Small cell lung cancer); 48 h

## CC1(C)CCC(C)(C)c2cc(-c3ccc4cc(C(=O)NO)ccc4c3)ccc21 [hybrid 3]
OVCAR-5
  TGI: 19.5 µM
MDA-MB-231/ATCC
  TGI: 3.59 µM
SW-620
  GI50: 0.626 µM
SW-620; read-out: LC50
  CC50: 4.85 µM
[1]
  effect on growth of normal cells: only minimal effects
HOP-62
  TGI: 2.19 µM
DU-145
  GI50: 0.622 µM
DU-145; read-out: LC50
  CC50: 4.68 µM
RPMI-8226
  TGI: 4.39 µM
SF-539
  GI50: 0.699 µM
SF-539; read-out: LC50
  CC50: 30.9 µM
U251
  TGI: 1.69 µM
SF-295
  TGI: 1.77 µM
SK-OV-3
  TGI: 11.7 µM
SR
  TGI: 1.2 µM
NCI-H322M
  GI50: 0.446 µM
NCI-H322M; read-out: LC50
  CC50: 26.2 µM
EKVX
  GI50: 0.686 µM
EKVX; read-out: LC50
  CC50: 18.4 µM
MDA-MB-468
  TGI: 2.75 µM
HCT-116
  GI50: 0.424 µM
HCT-116; read-out: LC50
  CC50: 4.03 µM
COLO205
  TGI: 2.33 µM
CCRF-CEM
  GI50: 0.306 µM
CCRF-CEM; read-out: LC50
  CC50: > 100 µM
LOX IMVI
  TGI: 1.36 µM
MCF-7
  effect on cell growth: active
MCF-7; Homo sapiens, MCF7, 240 h
  IC50: 0.15 µM
MDA-MB-231
  effect on cell growth: active
MDA-MB-231; Homo sapiens, 240 h
  IC50: 0.3 µM
SkBr3
  effect on cell growth: active
SkBr3; Homo sapiens, SK-BR-3, 240 h
  IC50: 0.09 µM
SF-268
  GI50: 0.533 µM
SF-268; read-out: LC50
  CC50: 5.05 µM
A549/ATCC
  TGI: 2.15 µM

From US20130165520A1, “Hybrid Molecule Having Mixed Retinoic Acid Receptor Agonism and Histone Deacetylase Inhibitory Properties” (priority 2010, published 2013)
